In a melting point compilation (Tetko et al.; mined from patent text by program, amines drawn as free bases though some values may be those of a salt):

For `Oc1nn(-c2ccccc2)c2ccccc12`, the melting point was 209 to 211 °C.
In the case of `CCCC(=O)NC1C=CC(CO)C1` (stereo unspecified), the melting point is reported as 71 to 72 °C.
Work on `CCS(=O)(=O)c1cn(C)c2ccccc2c1=O` yielded a melting point of 164 to 166 °C.
`CCN(CC)CCNC(=O)c1ccc(-c2n[nH]c3c2Cc2ccccc2-3)cc1` gave a melting point of 172 to 174 °C.
`COc1ccc(S(=O)(=O)N(Cc2cccnc2)c2c(C)cc(-c3cccs3)cc2C(=O)O)cc1` gave a melting point of 191 °C.
`COc1cc(COc2ccc(N)nn2)cc(OC)c1OC` showed a melting point of 142 to 144 °C.
Molecule `CC(C)(C)c1cc2c(c(C(C)(C)C)c1)OC(=O)C2c1ccc(C#N)cc1` (stereo unspecified) has a melting point of 136 to 137 °C.
`COc1ccc(S(=O)(=O)C2(C(=O)NO)CCN(C(C)(C)C)CC2)cc1` showed a melting point of 40 °C.
Molecule `O=C1NCCN1c1ccc(S(=O)(=O)Oc2ccc3[nH]ccc3c2)cc1` has a melting point of 226 to 227 °C.
Molecule `NC(=O)CNC(=O)c1ccnc(-c2cccc3cc(Cc4cccc(C(F)(F)F)c4)sc23)c1F` has a melting point of 169 to 170 °C.
For `COc1cc(-c2nc(-n3ccnc3)c3c(C)c(C#N)sc3n2)cc(OC)c1OC`, the melting point was 238 to 240 °C.
In the case of `Cc1cccc(C(=O)c2[nH]c3ccc(Cl)cc3c2CC(=O)O)c1`, the melting point is reported as 173 to 174 °C.
Work on `S=c1c2cccnc2c(-c2cccc(Cl)c2)nn1Cc1ccccc1` yielded a melting point of 132 °C.
Work on `Cc1ccc(OC(=O)N2CCC[C@H]2C(=O)O)cc1` yielded a melting point of 76 to 77 °C.
`Nc1ccc(OC2=CC=CN(Oc3ccc(N)cc3)C2)cc1` showed a melting point of 152 to 154 °C.
In the case of `O=C1CCC(CCC(=O)OCc2ccc(C(F)(F)F)cc2)N1` (stereo unspecified), the melting point is reported as 81 to 82 °C.
Work on `CNC(=O)[C@@H]1CCCCN1S(=O)(=O)c1ccc(Cl)c(COc2cccc3c(-n4ccnc4)cc(C)nc23)c1Cl` yielded a melting point of 74 °C.
Molecule `CCOC(=O)[C@@H]1C[C@H]1Sc1nc2ccccc2cc1-c1ccccc1` (relative stereo) has a melting point of 94 to 94.5 °C.
`O=c1c(-c2ccc(O)cc2)coc2cc(O)ccc12` showed a melting point of 227 to 228 °C.
With `CC(C)Oc1ccc(C(=O)c2ccc([N+](=O)[O-])cc2)cc1` the melting point was 136 to 137 °C.
For `FC(Sc1nnc(-c2ccc(Cl)cc2)s1)=C(F)C(F)(F)F`, the melting point was 69 to 70 °C.
`BrCc1noc2cc3ccccc3cc12` showed a melting point of 111 to 113 °C.
Work on `O=C(OCc1cc(F)nc(F)c1)c1ccccc1` yielded a melting point of 83 to 84 °C.
Work on `COc1ccc(NC(=O)c2sccc2S(=O)(=O)Nc2onc(C)c2Br)cc1` yielded a melting point of 202 to 205 °C.
With `CN(C)CCC(c1ccc(NC=O)cc1)c1ncc[nH]1` (stereo unspecified) the melting point was 142 to 144 °C.
Molecule `CCCCCCCCCCCCCCCCNC(=O)c1cc(OCCN=C=S)c2ccccc2c1O` has a melting point of 90 to 91 °C.
For `CCCCN(CC)CC1CCCCN1CCNC(=O)N1c2ccccc2C(=O)Nc2cccnc21` (stereo unspecified), the melting point was 156 to 157 °C.
With `CCC(CC)Nc1cc(C)nc(Cl)c1C(=O)OC` the melting point was 82 to 84 °C.
With `Nc1ccccc1C(=O)Nc1ccc(Br)cc1` the melting point was 139 to 144 °C.
Molecule `COc1ccc2c(c1)C(=NN)Cc1c(C#N)cccc1S2` has a melting point of 186 to 187 °C.
Molecule `C=C(C)COc1ccc(C(=O)C=Cc2ccc(OC)cc2OC)c(O)c1` has a melting point of 106 to 107 °C.
Work on `COCCc1nc2c(N)nc3ccccc3c2n1CCOCCN(C)C(=O)c1ccccc1` yielded a melting point of 93.5 to 97 °C.
`CN(C)CCNCCn1nc2c3c(c(NCCNCCO)ccc31)C(=O)c1c(O)ccc(O)c1-2` showed a melting point of 148 to 153 °C.
`O=C(N[C@H](Cc1cccc(OCC(F)(F)F)c1)[C@@H](O)c1ccc(F)cc1)c1ccc(F)c2ccccc12` (racemic) gave a melting point of 192 to 193 °C.
In the case of `Cc1nc2c(-c3ccc(N4CCN(C)CC4)cc3)cnn2c(N)c1-c1ccc(F)cc1`, the melting point is reported as 289 to 291 °C.
`C(=C1CCC2(CC1)OCCO2)c1ccc(OCc2ccccc2)cc1` showed a melting point of 56 to 57 °C.
For `CCn1cc(C(=O)O)c(=O)c2cc(F)c(N3CC(C)C(CN)C3)c(F)c21` (stereo unspecified), the melting point was 222 to 224 °C.
Molecule `O=[N+]([O-])c1ccc(CS(=O)(=O)CCO)cc1CS(=O)(=O)CCO` has a melting point of 211 to 212 °C.
`O=[N+]([O-])C1(Cc2ccccc2)CN(Cc2ccccc2)CCN(Cc2ccccc2)C1` showed a melting point of 66 to 69 °C.
`Nc1nc(NCc2cccc(I)c2)c2ncn(C3OC(CO)C(O)C3O)c2n1` (stereo unspecified) showed a melting point of 152 to 154 °C.
With `CN(C)CC(C)(C)CNc1ncc2cc(-c3c(Cl)cccc3Cl)c(NC(=O)NC(C)(C)C)nc2n1` the melting point was 161 to 170 °C.
`C=C[C@H]1C(=O)N(C)[C@H](C(C)(C)C)N1C(=O)c1ccccc1` gave a melting point of 169 to 171 °C.
With `COc1ccc(-c2[nH]nc3c2C(=O)c2c(NC(=O)Cc4ccc(Cl)c(Cl)c4)cccc2-3)cc1` the melting point was 299 °C.
In the case of `O=C(NCC12CC3CC(CC(C3)C1)C2)c1cc(-c2c(F)cccc2C(=O)O)ccc1Cl`, the melting point is reported as 108 to 113 °C.
For `CO/N=C(/C(N)=O)c1ccccc1COC(C)=O`, the melting point was 121 to 123 °C.
With `FC(F)(F)c1nc(N=C(Cl)c2cccc(Cl)c2)sc1Cl` the melting point was 89 to 90 °C.
For `O=C(O)Cc1ccc2c(c1)CC(CNS(=O)(=O)c1ccc3ccccc3c1)C2` (stereo unspecified), the melting point was 180 to 182 °C.
`CCCn1c(=O)c([N+](=O)[O-])c2n(c1=O)CCS2` gave a melting point of 189 to 191 °C.
`CCCCCCCNC(=O)Nc1ccc(N(C)C)cc1C(=O)NCC1CCN(C(c2ccc(OC)cc2)c2ccc(OC)cc2)CC1` gave a melting point of 163 °C.
`COC(=O)CN(Cc1ccccc1N)S(=O)(=O)c1ccc(OC)cc1` showed a melting point of 100 to 102 °C.
For `O=C(Nc1cc(O)c(Cl)cc1F)OCc1ccccc1`, the melting point was 70 to 72 °C.
For `CCCN(Cc1ccc(C(=O)N2CCN(c3ccccc3)CC2)cc1)C1CCc2ncsc2C1` (stereo unspecified), the melting point was 70 °C.
With `COc1ccc(OC)c2c1CC(O)(C(=O)O)CC21SCCS1` (stereo unspecified) the melting point was 178 to 180 °C.
`CS(=O)(=O)c1ccc(-c2cnn(CC(F)(F)F)c(=O)c2OCc2ccco2)cc1` showed a melting point of 113 to 115 °C.
For `COc1ccc(C(=O)Cc2c(Cl)cncc2Cl)c2c(CC(=O)OCc3ccccc3[N+](=O)[O-])coc12`, the melting point was 200 to 201 °C.
With `CCOC(=O)ON(C(=O)NC)c1ccc(Cl)c(Cl)c1` the melting point was 97 to 98 °C.
In the case of `CCCN1CCc2[nH]c3ccc4sccc4c3c2C1`, the melting point is reported as 143 to 144 °C.
`COC(=O)[C@H]1O[C@H]1C(=O)N(CC(=O)OC(C)(C)C)c1ccc(OC)cc1` gave a melting point of 89 °C.
In the case of `CN(c1nnc(C(F)(F)F)s1)C1CCN(Cc2ccc(F)cc2)CC1`, the melting point is reported as 85.8 °C.
`COC(=O)NCc1nc(C(C)C)c(Sc2cc(Cl)cc(Cl)c2)n1C` gave a melting point of 138 to 139 °C.
`C=CCN(CC=C)Cc1c(-c2ccccc2)sc(N)c1C(=O)c1ccc(Cl)cc1` gave a melting point of 155 to 156 °C.
`N#Cc1cnc2ccsc2c1Cl` showed a melting point of 105 to 107 °C.
`OCC1c2ccccc2-c2c1c1ccccc1c1ccccc21` (stereo unspecified) gave a melting point of 143 to 145 °C.
In the case of `CCCc1c(OCCCOc2ccc(C(=O)O)cc2Cl)ccc(C(C)=O)c1OC(C)=O`, the melting point is reported as 146 to 148 °C.
With `COc1cc2cc3c(Nc4ccc(F)c(Cl)c4)c(C#N)cnc3cc2cc1OCCN1CCOCC1` the melting point was 237 to 242 °C.
In the case of `CCOc1ccc2c(c1)c(C[C@H](C)N)c1n2CCC1`, the melting point is reported as 101 to 102 °C.
For `O=C(NCC12CC3CC(CC(C3)C1)C2)c1cccnc1Sc1cc(O)ccc1O`, the melting point was 108 to 110 °C.
`COc1ccc(CSc2nnc(-c3ccc4ncccc4c3)o2)cc1C(F)(F)F` gave a melting point of 130 to 131 °C.
With `O=C(O)c1c[nH]c2nc(Cl)ccc2c1=O` the melting point was 271 to 273 °C.
In the case of `CCOC(=O)CCNC(=O)Nc1ccccc1CCc1cc(C(C)(C)C)c(O)c(C(C)(C)C)c1`, the melting point is reported as 158 to 159 °C.
For `O=C(c1ccc(C2=CCCc3ccccc32)cc1)N1Cc2cccn2Cc2ccccc21`, the melting point was 81 °C.
`CCCOc1cccc(C(NC2CCN(C)CC2)c2nc3ccccc3s2)c1` (stereo unspecified) gave a melting point of 90 °C.
In the case of `COC(=O)c1cc(C(C)=O)cs1`, the melting point is reported as 94 to 96 °C.
For `CN1C(=O)SC(Cc2ccc(N)cc2)C1=O` (stereo unspecified), the melting point was 91 to 92 °C.
In the case of `CCOC(=O)c1ccc2c(Br)cccc2c1`, the melting point is reported as 52 to 54 °C.
Molecule `NNc1cc2c(nn1)CCN(C(=O)c1ccc(Br)cc1)C2` has a melting point of 192 to 195 °C.
With `CC(C)Cc1csc2[nH]c(=O)c(=O)[nH]c12` the melting point was greater than 270 °C.
In the case of `CCn1nc(-c2sc(C(=O)NCc3ccccn3)nc2-c2ccccc2)ccc1=O`, the melting point is reported as 169 to 170 °C.
Work on `CNC(=O)N=C(NC(=O)Nc1ccc(Cl)cc1)OC` yielded a melting point of 169 to 171 °C.
With `O=C(O)C1=Cc2c(ccc(Cl)c2-c2ccccc2)OC1C(F)(F)F` (stereo unspecified) the melting point was 229 to 231 °C.
Work on `O=[N+]([O-])c1ccc(OCC2CC2)c(C(F)(F)F)c1` yielded a melting point of 41 to 44 °C.
Molecule `COc1cc(CC#Cc2c(C)nc(N)nc2N)cc(OC)c1OC` has a melting point of 164 to 166 °C.
`COC(=O)CN1C(=O)C(C(C)C)Sc2ccccc21` (stereo unspecified) showed a melting point of 81 to 82 °C.
With `CSC(=S)N1C(CO)Cc2c([nH]c3ccccc23)C1C` (stereo unspecified) the melting point was 153 to 156 °C.
In the case of `C=C1c2cc(C(=O)O)ccc2CCC1n1ccnc1` (stereo unspecified), the melting point is reported as 227 to 229 °C.
For `N#Cc1c(N)nc2ccccc2c1Cl`, the melting point was 210 °C.
`CC(=O)NC[C@H]1CN(c2ccc(N3CCC(n4nnc(N5CCN(Cc6ccccc6)CC5)n4)CC3)c(F)c2)C(=O)O1` gave a melting point of 202 to 204 °C.
In the case of `CNC(=O)C(=Cc1cccc(-c2ccc(C)c(C)c2)c1)NC(C)=O`, the melting point is reported as 224 °C.
In the case of `COc1cc(OC)c(-c2cccs2)cc1/C=C/C(=O)c1ccc(S(=O)(=O)NCc2cccnc2)cc1`, the melting point is reported as 167 to 168 °C.
Molecule `CCNn1nnnc1S` has a melting point of 90 to 91 °C.
With `CCCCNC(=O)ON1C(C)(C)CC(OC(=O)c2ccccc2)CC1(C)C` the melting point was 126 to 127 °C.
With `CC#CCOc1cc2ncc(C#N)c(Nc3cc(OC)c(Cl)cc3Cl)c2cc1OC` the melting point was 193 to 197 °C.
Molecule `CC(=O)Nc1ccc(C)c(NCCS(=O)(=O)F)c1` has a melting point of 154 to 155 °C.
Molecule `CN(C)C=C(C(=O)c1ccccc1)c1ccccc1` has a melting point of 128 to 133 °C.
Molecule `CCN(CCCCC12CC3CC(CC(C3)C1)C2)C(=O)NCCCc1ccncc1` has a melting point of 92.7 to 93.7 °C.
Work on `O=C(CCCl)N1c2ccccc2CCc2ccccc21` yielded a melting point of 107 to 108 °C.
Molecule `O=C(O)COc1ccc(SCc2ccc(OCc3ccc(C(F)(F)F)cc3)cc2)c2c1CCCO2` has a melting point of 143 to 144 °C.
In the case of `CC(=O)N1CCc2c(c3cccc4c3n2CCS4)C1`, the melting point is reported as 161 to 163 °C.
With `O=C(O)c1cccc(-c2cccc3cc(Cc4cccc(C(F)(F)F)c4)oc23)c1` the melting point was 169 to 170 °C.
`Cn1ncc2[nH]c3cccc(-c4cccc(O)c4)c3c(=O)c21` gave a melting point greater than 300 °C.
Molecule `Cc1ccc2c(c1)c(=O)c(CO)cn2C` has a melting point of 171 to 173 °C.
